The source of these data is ChEMBL document CHEMBL1201862, “PubChem BioAssay data set” (2004).

Assay [1] in a line: NIH3T3 cell viability loss – ATP luminescence, mouse fibroblasts, counter-screen, dose response (AID 2010).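 Further: cells exposed to compound for about 90 hours before reading.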 Format: functional, cell-based.
The target in the next assay is Caspase-9 (Homo sapiens, UniProt P55211). Put plainly: inhibitors of purified CASP9 protease – biochemical, fluorescence, plate reader, cherry-picked samples, selectivity assay for caspase-6 inhibitor project, dose response (AID 743293).
Sequence of Caspase-9 (P55211 1-315 limits assumed): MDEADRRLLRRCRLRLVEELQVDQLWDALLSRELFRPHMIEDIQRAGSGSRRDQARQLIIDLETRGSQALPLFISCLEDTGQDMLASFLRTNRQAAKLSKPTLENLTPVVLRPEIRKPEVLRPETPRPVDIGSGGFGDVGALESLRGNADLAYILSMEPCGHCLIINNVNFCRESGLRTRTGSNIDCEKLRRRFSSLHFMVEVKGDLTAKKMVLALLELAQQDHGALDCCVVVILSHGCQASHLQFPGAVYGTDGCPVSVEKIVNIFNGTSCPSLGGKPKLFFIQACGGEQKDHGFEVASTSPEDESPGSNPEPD
Sequence of Caspase-9 (P55211 331-416 limits assumed): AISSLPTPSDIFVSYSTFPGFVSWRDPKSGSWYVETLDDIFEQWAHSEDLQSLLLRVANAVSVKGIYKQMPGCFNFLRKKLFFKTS
For assay [2], the target named is T1, Sentrin-specific protease 7 (Homo sapiens, UniProt Q9BQF6).
T1 sequence (Q9BQF6 whole entry): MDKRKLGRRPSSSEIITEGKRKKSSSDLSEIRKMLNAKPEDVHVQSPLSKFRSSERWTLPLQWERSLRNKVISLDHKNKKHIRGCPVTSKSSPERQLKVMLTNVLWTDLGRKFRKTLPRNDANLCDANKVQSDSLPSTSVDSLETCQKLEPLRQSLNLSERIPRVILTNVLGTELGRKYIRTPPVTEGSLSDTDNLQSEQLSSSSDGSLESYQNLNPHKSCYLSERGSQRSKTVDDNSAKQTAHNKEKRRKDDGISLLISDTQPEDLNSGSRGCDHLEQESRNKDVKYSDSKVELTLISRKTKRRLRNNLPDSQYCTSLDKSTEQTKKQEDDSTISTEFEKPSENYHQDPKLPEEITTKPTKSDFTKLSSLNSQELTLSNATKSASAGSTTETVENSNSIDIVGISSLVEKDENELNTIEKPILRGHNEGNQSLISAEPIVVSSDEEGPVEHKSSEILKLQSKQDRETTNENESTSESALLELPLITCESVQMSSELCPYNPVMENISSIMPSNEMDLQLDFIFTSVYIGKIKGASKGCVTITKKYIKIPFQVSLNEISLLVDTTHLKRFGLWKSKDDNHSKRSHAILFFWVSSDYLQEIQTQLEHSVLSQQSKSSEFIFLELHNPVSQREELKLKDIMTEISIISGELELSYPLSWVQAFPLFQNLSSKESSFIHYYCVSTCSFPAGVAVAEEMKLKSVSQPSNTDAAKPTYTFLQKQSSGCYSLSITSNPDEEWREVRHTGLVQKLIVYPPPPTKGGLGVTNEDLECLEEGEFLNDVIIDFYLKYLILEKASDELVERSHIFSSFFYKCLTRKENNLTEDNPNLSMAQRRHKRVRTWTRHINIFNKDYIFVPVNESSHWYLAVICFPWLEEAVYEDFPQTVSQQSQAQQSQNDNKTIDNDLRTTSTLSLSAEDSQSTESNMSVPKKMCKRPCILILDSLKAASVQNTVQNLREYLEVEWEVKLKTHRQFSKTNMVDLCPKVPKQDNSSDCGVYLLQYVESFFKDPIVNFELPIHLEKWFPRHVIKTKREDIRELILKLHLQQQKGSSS
Put plainly: inhibition of human SENP7 cleavage activity – biochemical, luminescence, SAR follow-up (AID 504497). Type of assay: functional.

Assay [3] deals with Macrophage-stimulating protein receptor (Homo sapiens, UniProt Q04912). Put plainly: Navigating the Kinome. Panel member name: MST1R. Type of assay: functional.
Assay [4] addresses cAMP-dependent protein kinase catalytic subunit PRKX (Homo sapiens, UniProt P51817). Format: functional.
Assay [5] deals with Serine/threonine-protein kinase PLK1 (Homo sapiens, UniProt P53350). Type of assay: functional.
Sequence of Serine/threonine-protein kinase PLK1 (P53350 whole entry): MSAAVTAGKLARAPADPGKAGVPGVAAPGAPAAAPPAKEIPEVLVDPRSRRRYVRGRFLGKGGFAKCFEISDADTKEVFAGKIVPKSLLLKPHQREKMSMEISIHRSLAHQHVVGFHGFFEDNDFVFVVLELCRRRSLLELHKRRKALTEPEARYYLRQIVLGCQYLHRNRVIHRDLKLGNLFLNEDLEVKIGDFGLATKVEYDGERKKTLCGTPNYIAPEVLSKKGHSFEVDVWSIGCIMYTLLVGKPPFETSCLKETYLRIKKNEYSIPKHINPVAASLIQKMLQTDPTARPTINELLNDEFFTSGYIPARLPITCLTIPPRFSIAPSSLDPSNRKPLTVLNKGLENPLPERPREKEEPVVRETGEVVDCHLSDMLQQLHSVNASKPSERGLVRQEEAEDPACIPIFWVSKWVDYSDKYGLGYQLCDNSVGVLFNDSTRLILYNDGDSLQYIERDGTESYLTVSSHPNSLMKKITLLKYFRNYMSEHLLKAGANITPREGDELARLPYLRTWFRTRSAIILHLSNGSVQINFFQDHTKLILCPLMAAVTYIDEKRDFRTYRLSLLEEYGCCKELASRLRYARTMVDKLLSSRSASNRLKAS
The target of assay [6] is Serine/threonine-protein kinase pim-1 (Homo sapiens, UniProt P11309). Format: functional.
Assay [7] addresses Ribosomal protein S6 kinase alpha-5 (Homo sapiens, UniProt O75582). Format: functional.
The target of assay [8] is Lymphokine-activated killer T-cell-originated protein kinase (Homo sapiens, UniProt Q96KB5). Type of assay: functional.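 Further: value comes from a kinase panel screen in which TOPK was one of the panel members.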
Sequence of Lymphokine-activated killer T-cell-originated protein kinase (Q96KB5 whole entry): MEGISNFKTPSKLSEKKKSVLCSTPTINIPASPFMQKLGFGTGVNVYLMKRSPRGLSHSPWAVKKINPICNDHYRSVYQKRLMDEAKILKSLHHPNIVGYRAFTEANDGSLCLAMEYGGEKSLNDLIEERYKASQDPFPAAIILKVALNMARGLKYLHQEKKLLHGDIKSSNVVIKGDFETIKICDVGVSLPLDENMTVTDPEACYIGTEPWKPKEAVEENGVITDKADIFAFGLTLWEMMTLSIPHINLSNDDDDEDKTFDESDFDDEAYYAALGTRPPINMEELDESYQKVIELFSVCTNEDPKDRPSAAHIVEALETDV
Assay [9] concerns the target Serine/threonine-protein kinase DCLK1 (Homo sapiens, UniProt O15075). Type of assay: functional.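 Further: affinity for DCLK1 (listed as DCAMKL1) measured as one member of a kinome-wide kinase profiling panel.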
For the next assay, the target named is Insulin receptor (Homo sapiens, UniProt P06213). Format: functional.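 Further: insulin receptor kinase tested as one member of a kinome-wide kinase panel.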
Assay [10] deals with Tyrosine-protein kinase JAK2 (Homo sapiens, UniProt O60674). Format: functional.
Sequence of Tyrosine-protein kinase JAK2 (O60674 whole entry): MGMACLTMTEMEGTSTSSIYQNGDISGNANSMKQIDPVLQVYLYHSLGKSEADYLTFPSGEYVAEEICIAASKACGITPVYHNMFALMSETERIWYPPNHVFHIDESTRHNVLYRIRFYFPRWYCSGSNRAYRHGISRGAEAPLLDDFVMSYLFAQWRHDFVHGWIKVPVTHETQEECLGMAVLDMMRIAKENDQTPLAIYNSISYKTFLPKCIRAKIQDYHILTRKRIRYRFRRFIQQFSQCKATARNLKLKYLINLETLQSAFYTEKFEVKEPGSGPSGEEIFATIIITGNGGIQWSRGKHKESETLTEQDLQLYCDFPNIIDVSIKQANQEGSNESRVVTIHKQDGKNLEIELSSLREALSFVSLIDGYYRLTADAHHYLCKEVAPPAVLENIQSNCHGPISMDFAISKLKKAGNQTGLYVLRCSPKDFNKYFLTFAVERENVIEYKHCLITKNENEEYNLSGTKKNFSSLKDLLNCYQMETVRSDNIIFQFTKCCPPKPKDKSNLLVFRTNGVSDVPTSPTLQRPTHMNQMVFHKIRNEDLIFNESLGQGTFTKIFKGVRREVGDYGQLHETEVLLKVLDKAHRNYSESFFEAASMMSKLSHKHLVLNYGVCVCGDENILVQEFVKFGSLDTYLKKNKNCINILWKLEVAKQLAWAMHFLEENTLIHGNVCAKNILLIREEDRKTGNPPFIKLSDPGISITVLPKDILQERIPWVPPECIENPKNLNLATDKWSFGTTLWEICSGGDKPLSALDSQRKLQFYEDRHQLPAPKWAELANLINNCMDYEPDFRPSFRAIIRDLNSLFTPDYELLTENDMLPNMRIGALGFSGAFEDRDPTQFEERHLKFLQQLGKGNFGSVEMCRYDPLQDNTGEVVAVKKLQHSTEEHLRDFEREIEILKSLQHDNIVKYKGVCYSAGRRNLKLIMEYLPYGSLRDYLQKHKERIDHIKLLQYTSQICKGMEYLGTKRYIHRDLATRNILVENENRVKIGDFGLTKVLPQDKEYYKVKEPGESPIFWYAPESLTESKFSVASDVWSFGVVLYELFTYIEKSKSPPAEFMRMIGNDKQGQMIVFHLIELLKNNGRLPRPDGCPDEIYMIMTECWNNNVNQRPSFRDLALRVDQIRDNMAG
A further assay addresses Focal adhesion kinase 1 (Homo sapiens, UniProt Q05397). Type of assay: functional.
Assay [11] deals with Receptor tyrosine-protein kinase erbB-2 (Homo sapiens, UniProt P04626). Put plainly: Navigating the Kinome. Panel member name: ERBB2. Format: functional.
The target in assay [12] is Mitogen-activated protein kinase kinase kinase kinase 4 (Homo sapiens, UniProt O95819). Type of assay: functional.
The target of the next assay is Aurora kinase B (Homo sapiens, UniProt Q96GD4). Type of assay: functional.
In assay [13] the target is Cell division cycle 7-related protein kinase (Homo sapiens, UniProt O00311). Format: functional.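 Further: value obtained from a kinome-wide kinase panel.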
Assay [14] addresses MAP kinase-interacting serine/threonine-protein kinase 2 (Homo sapiens, UniProt Q9HBH9). Type of assay: functional.
In assay [15] the target is 3-phosphoinositide-dependent protein kinase 1 (Homo sapiens, UniProt O15530). Format: functional.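 Further: value comes from the Navigating the Kinome panel, PDPK1 member.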
In assay [16] the target is Leukocyte tyrosine kinase receptor (Homo sapiens, UniProt P29376). Put plainly: Navigating the Kinome. Panel member name: LTK. Format: functional.
Assay [17] concerns the target Protein kinase C theta type (Homo sapiens, UniProt Q04759). Put plainly: Navigating the Kinome. Panel member name: PRKCQ. Type of assay: functional.
For assay [18], the target named is Tyrosine-protein kinase ABL1 (Homo sapiens, UniProt P00519). Type of assay: functional.
Sequence of Tyrosine-protein kinase ABL1 (P00519 whole entry): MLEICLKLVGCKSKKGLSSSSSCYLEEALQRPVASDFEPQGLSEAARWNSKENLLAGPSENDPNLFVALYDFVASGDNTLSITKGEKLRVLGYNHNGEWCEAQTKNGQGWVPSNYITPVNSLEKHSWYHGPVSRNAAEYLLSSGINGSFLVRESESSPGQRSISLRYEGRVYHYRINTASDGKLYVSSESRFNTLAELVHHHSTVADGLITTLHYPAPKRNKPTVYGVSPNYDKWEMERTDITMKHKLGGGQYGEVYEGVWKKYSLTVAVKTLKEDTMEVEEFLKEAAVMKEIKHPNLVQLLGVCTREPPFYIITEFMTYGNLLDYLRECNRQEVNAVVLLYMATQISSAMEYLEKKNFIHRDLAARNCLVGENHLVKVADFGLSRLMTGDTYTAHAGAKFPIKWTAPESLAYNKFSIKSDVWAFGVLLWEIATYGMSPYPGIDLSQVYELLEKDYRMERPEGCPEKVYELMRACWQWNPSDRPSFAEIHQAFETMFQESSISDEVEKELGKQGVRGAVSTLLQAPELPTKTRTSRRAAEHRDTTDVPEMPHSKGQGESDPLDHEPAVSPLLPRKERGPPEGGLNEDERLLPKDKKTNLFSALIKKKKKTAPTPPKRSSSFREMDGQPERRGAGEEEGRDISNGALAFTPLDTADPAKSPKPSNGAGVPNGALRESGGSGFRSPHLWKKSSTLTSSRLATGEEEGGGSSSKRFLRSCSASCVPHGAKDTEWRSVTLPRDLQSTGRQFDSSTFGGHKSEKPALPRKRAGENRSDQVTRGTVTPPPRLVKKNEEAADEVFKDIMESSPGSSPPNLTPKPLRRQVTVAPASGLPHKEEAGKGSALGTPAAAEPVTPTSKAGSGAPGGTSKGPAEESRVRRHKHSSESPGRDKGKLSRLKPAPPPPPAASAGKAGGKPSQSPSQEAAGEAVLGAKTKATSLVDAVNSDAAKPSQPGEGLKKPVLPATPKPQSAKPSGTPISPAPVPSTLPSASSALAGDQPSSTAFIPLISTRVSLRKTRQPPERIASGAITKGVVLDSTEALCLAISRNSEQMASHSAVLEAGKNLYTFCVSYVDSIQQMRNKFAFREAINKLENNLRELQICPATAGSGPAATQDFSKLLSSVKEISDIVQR
Assay [19] concerns the target Tyrosine-protein kinase FRK (Homo sapiens, UniProt P42685). Type of assay: functional.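 Further: FRK tested as one member of a kinome panel.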

Molecules are shown by their SMILES. The source made the active and inactive calls. Where only a bound is given, the exact number is not on record here.

Sequence of Protein kinase C theta type (Q04759 whole entry): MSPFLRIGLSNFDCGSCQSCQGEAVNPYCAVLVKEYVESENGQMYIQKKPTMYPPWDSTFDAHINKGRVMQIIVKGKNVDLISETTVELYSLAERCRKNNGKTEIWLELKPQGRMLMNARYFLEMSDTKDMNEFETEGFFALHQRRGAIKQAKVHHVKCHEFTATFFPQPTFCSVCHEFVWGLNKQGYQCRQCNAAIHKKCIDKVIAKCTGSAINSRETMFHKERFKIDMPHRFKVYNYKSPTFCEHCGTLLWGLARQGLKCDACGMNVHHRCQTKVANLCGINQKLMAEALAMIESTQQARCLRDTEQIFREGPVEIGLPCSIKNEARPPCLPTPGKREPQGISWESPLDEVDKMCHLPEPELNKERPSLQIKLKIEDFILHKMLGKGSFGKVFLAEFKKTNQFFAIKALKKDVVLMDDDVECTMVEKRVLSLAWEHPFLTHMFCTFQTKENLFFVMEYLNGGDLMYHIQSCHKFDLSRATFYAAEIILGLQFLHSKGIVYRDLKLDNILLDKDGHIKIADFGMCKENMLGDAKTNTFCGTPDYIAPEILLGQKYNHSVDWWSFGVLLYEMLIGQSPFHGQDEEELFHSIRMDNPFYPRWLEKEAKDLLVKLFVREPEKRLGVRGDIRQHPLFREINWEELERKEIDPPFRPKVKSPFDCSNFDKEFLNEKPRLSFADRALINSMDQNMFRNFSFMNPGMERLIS
Sequence of MAP kinase-interacting serine/threonine-protein kinase 2 (Q9HBH9 whole entry): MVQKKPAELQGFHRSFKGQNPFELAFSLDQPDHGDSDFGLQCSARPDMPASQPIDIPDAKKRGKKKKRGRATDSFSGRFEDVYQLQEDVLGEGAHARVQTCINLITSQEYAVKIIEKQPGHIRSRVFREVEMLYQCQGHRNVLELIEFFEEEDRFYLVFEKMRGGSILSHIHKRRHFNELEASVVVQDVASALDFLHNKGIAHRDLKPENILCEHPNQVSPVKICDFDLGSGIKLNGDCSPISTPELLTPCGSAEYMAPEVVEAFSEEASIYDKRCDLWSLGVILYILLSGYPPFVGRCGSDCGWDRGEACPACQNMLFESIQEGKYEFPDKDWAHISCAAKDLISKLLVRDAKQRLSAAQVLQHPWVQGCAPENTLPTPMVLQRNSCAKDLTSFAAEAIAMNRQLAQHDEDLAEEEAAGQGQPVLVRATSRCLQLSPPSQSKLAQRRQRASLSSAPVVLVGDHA

With `Cc1c(NC(=O)C(C)OC(=O)c2ccc([N+](=O)[O-])s2)c(=O)n(-c2ccccc2)n1C` (stereo not drawn), the concentration giving a half-maximal response (EC50) (in general, the concentration giving half of the maximal effect) in assay [1] is > 60000 nM (not active). For the same compound, the half-maximal activity concentration (AC50) (in general, the concentration at which the activity in the assay is half-maximal) at Caspase-9 is 41300 nM (active).
Take `COc1cc(Br)c(C(=O)c2nccc3cc(OC)c(OC)cc23)cc1OC`: the half-inhibitory concentration (IC50) – broadly, the point on the concentration scale where inhibition reaches its midpoint – in assay [2] was 2990 nM (active).
For the compound `CC(N)C1CCC(C(=O)Nc2ccnc3[nH]ccc23)CC1` (stereo not drawn), the Ki – broadly, a dissociation constant, usually derived from enzyme kinetics or from competition with a known ligand – was 2000 nM (active) in assay [3]; 501 nM (active) in assay [4]; > 7940 nM (inactive) in assay [5]; > 6310 nM (inactive) in assay [6]; 631 nM (active) in assay [7]; 5010 nM (active) in [8]. The Ki in [9] was > 10000 nM (inactive); at Insulin receptor, > 5010 nM (inactive); in assay [10], > 1580 nM (inactive); at Focal adhesion kinase 1 it was > 3160 nM (inactive); in assay [11] it was > 1580 nM (inactive); in assay [12] it was > 2510 nM (inactive). Besides, the Ki at Aurora kinase B was 1000 nM (active); in assay [13] it was > 1260 nM (inactive); in assay [14], 2000 nM (active); in assay [15], 631 nM (active); in assay [16], 398 nM (active); in [17], 7.94 nM (active). The Ki in assay [18] is > 631 nM (inactive); in assay [19], > 2510 nM (inactive).
